Results taken from patent US7906486B2, “Method of treating or preventing tissue deterioration, injury or damage due to disease of mucosa” (SciClone Pharmaceuticals, Inc., priority 2007, dated 2011).

System: oral mucositis induced by acute radiation (40 Gy, left buccal cheek pouch)
Experiment: Oral mucositis induced by acute radiation in hamsters, mucositis scoring (Example 1, SCI-01)
Assay type: in vivo, Syrian Golden Hamsters
Set-up: key to peak mean mucositis score: 0 = normal, 5 = severe ulceration
Settings: for Days <3: animal days with mucositis score below three; for % Days >=3 / Days >=3: animal days with mucositis score of three or more; for Chi Sq v control: days with score >=3
Text: The acute radiation model in hamsters has proven to be an accurate, efficient and cost-effective technique to provide a preliminary evaluation of anti-mucositis compounds. The course of mucositis in this model is well defined and results in peak scores approximately 14-16 Days following radiation. The acute model has little systemic toxicity, resulting in few hamster deaths, thus permitting the use of smaller groups (N=7-8) for initial efficacy studies. It has also been used to study specific mechanistic elements in the pathogenesis of mucositis. Molecules that show efficacy in the acute radiation model may be further evaluated in the more complex models of fractionated radiation, chemotherapy, or concomitant therapy.
In this study, an acute radiation dose of 40 Gy on day 0 was administered. Clinically significant mucositis was observed on days 12 through 28.
Thirty-two (32) Syrian Golden Hamsters were given an acute radiation dose of 40 Gy directed to their left buccal cheek pouch on day 0. Test materials were given by sub-cutaneous injection once daily. Dosing began one day before radiation (day −1) and continued until day 16. Mucositis was evaluated clinically starting on day 6, and continuing on alternate days until day 28.
The grade of mucositis was scored, beginning day 6, and for every second day thereafter, through and including day 28. The effect on mucositis of each drug treatment compared to placebo was assessed according to the following parameters:
The difference in the number of days hamsters in each group have ulcerative (score ≧3) mucositis.
On each evaluation day, the number of animals with a blinded mucositis score of 3 in each drug treatment group was compared to the control group. Differences were compared on a cumulative basis and statistical significance was determined by chi-square analysis. Efficacy, in this analysis, is defined by a significant reduction in the number of days that a group of animals had ulcerations (scores 3) when compared to the control group.
For each evaluation day the scores of the control group were compared to those of the treated groups using non-parametric rank sum analysis. Treatment success was considered as a statistically significant lowering of scores in the treated group on 2 or more days from day 6 to day 28.
Thirty-two Syrian Golden Hamsters were divided into four (4) groups of eight (8) animals each. All animals received a single dose of acute radiation of 40 Gy directed to their left buccal cheek pouch on day 0. This was accomplished by anesthetizing the animals and everting the left buccal pouch, while protecting the rest of the animals with a lead shield. Test materials were given by sub-cutaneous injection once daily as detailed in Table 1. Mucositis was evaluated clinically starting on Day 6, and continuing on alternate days until day 28.
Mucositis was induced using a standardized acute radiation protocol. A single dose of radiation (40 Gy/dose) was administered to all animals on day 0. Radiation was generated with a 160 kilovolt potential (15-ma) source at a focal distance of 30 cm, hardened with a 0.35 mm Cu filtration system. Irradiation targeted the left buccal pouch mucosa at a rate of 3.2 Gy/minute. Prior to irradiation, animals were anesthetized with an intraperitoneal injection of Ketamine (160 mg/kg) and Xylazine (8 mg/kg). The left buccal pouch was everted, fixed and isolated using a lead shield to protect all other parts of the hamster's body.
The mucositis score, weight change and survival were measured throughout the study as described above. For the evaluation of mucositis, the animals were anesthetized with an inhalation anesthetic, and the left pouch everted. Mucositis was scored visually by comparison to a validated photographic scale, ranging from 0 for normal, to 5 for severe ulceration (clinical scoring). In descriptive terms, this scale is defined as follows: […]

Q: What does the source list for N[C@H](CCC(=O)N[C@@H](Cc1c[nH]c2ccccc12)C(=O)O)C(=O)O [SCV-07, γ-D-glutamyl-L-tryptophan]?
A: day of peak mean mucositis score (1 ug/kg from day -1 to 16): 16; peak mean mucositis score (1 ug/kg from day -1 to 16): 3.8; improvement in daily mucositis scores relative to saline controls (Mann-Whitney rank sum) (1 ug/kg on days -1 to 16, any day of the study): did not show any statistically significant improvement on any day; day of peak mean mucositis score (10 ug/kg from day -1 to 16): 16; peak mean mucositis score (10 ug/kg from day -1 to 16): 3.7; day of peak mean mucositis score (100 ug/kg from day -1 to 16): 18; peak mean mucositis score (100 ug/kg from day -1 to 16): 3.4; Days <3 (1 ug/kg sc Days -1 to 16): 102; Days <3 (10 ug/kg sc Days -1 to 16): 120; Days <3 (100 ug/kg sc Days -1 to 16): 124; % Days >=3 (1 ug/kg sc Days -1 to 16): 46.9%; Days >=3 (1 ug/kg sc Days -1 to 16): 90; % Days >=3 (10 ug/kg sc Days -1 to 16): 37.5%; Days >=3 (10 ug/kg sc Days -1 to 16): 72; % Days >=3 (100 ug/kg sc Days -1 to 16): 35.4%; Days >=3 (100 ug/kg sc Days -1 to 16): 68; Chi Sq v control (1 ug/kg sc Days -1 to 16): 0.0105; Chi Sq v control (10 ug/kg sc Days -1 to 16): 3.0860; Chi Sq v control (100 ug/kg sc Days -1 to 16): 4.7420
